Results: the supplement of paper PMC10307832

Legend:
Assay in all cases: relative viability (nuclei count vs DMSO), 5 days (fraction); higher = more cells survive
NCI-H1944 = system: NCI-H1944
Method in brief: (§1)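 Lung cancer cell lines were seeded in 1536-well plates and dosed by pin tool the next day, with either a single drug or a fixed anchor-drug dose combined with five library-drug doses (not always all listed) spaced in √10 steps. Five days later, one step fixed the cells and stained their nuclei (final 0.05% Triton X-100, 1% formaldehyde, 1 ug/ml Hoechst), and nuclei were counted on 4× images. Relative viability is the nuclei count in treated wells divided by the count in vehicle wells, and each value is the median of duplicate plates.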

NCI-H2170 = system: NCI-H2170
Method in brief: as §1

NCI-H1666 = system: NCI-H1666
Method in brief: as §1

LK-2 = system: LK-2
Method in brief: as §1

NCI-H23 = system: NCI-H23
Method in brief: as §1

NCI-H1792 = system: NCI-H1792
Method in brief: as §1

NCI-H1975 = system: NCI-H1975
Method in brief: as §1

COR-L 105 = system: COR-L 105
Method in brief: as §1

SW 900 = system: SW 900
Method in brief: as §1

NCI-H1734 = system: NCI-H1734
Method in brief: as §1

PC-3 [JPC-3] = system: PC-3 [JPC-3]
Method in brief: as §1

SK-MES-1 = system: SK-MES-1
Method in brief: as §1

A-427 = system: A-427
Method in brief: as §1

EKVX = system: EKVX
Method in brief: as §1

HCC-366 = system: HCC-366
Method in brief: as §1

ChaGo-K-1 = system: ChaGo-K-1
Method in brief: as §1

NCI-H520 = system: NCI-H520
Method in brief: as §1

NCI-H1755 = system: NCI-H1755
Method in brief: as §1

NCI-H441 = system: NCI-H441
Method in brief: as §1

EMC-BAC-2 = system: EMC-BAC-2
Method in brief: as §1

H3255 = system: H3255
Method in brief: as §1

LOU-NH91 = system: LOU-NH91
Method in brief: as §1

## COc1cc(N2CCC(C(N)=O)CC2)ccc1Nc1nc(N)c(Cl)c(Nc2ccccc2S(=O)(=O)C(C)C)n1 [HG-5-88-01] + CC(=O)c1c(C)c2cnc(Nc3ccc(N4CCNCC4)cn3)nc2n(C2CCCC2)c1=O [Palbociclib] (partner 0.5 µM)
NCI-H1944; first compound 0.04 µM
  relative viability: 0.37
NCI-H1944; first compound 0.1265 µM
  relative viability: 0.351
NCI-H1944; first compound 0.4 µM
  relative viability: 0.36
NCI-H1944; first compound 1.265 µM
  relative viability: 0.322
NCI-H1944; first compound 4 µM
  relative viability: 0.31
NCI-H2170; first compound 0.04 µM
  relative viability: 0.366
NCI-H2170; first compound 0.1265 µM
  relative viability: 0.386
NCI-H2170; first compound 0.4 µM
  relative viability: 0.407
NCI-H2170; first compound 1.265 µM
  relative viability: 0.361
NCI-H2170; first compound 4 µM
  relative viability: 0.457
NCI-H1666; first compound 0.04 µM
  relative viability: 0.636
NCI-H1666; first compound 0.1265 µM
  relative viability: 0.663
NCI-H1666; first compound 0.4 µM
  relative viability: 0.623
NCI-H1666; first compound 1.265 µM
  relative viability: 0.661
NCI-H1666; first compound 4 µM
  relative viability: 0.623
LK-2; first compound 0.04 µM
  relative viability: 0.772
LK-2; first compound 0.1265 µM
  relative viability: 0.582
LK-2; first compound 0.4 µM
  relative viability: 0.71
LK-2; first compound 4 µM
  relative viability: 0.519
NCI-H23; first compound 0.04 µM
  relative viability: 0.507
NCI-H23; first compound 0.1265 µM
  relative viability: 0.549
NCI-H23; first compound 0.4 µM
  relative viability: 0.545
NCI-H23; first compound 1.265 µM
  relative viability: 0.378
NCI-H23; first compound 4 µM
  relative viability: 0.263
NCI-H1792; first compound 0.04 µM
  relative viability: 0.74
NCI-H1792; first compound 0.1265 µM
  relative viability: 0.675
NCI-H1792; first compound 0.4 µM
  relative viability: 0.623
NCI-H1792; first compound 4 µM
  relative viability: 0.614
NCI-H1975; first compound 0.04 µM
  relative viability: 0.597
NCI-H1975; first compound 0.1265 µM
  relative viability: 0.643
NCI-H1975; first compound 0.4 µM
  relative viability: 0.464
NCI-H1975; first compound 1.265 µM
  relative viability: 0.538
NCI-H1975; first compound 4 µM
  relative viability: 0.425
COR-L 105; first compound 0.04 µM
  relative viability: 0.398
COR-L 105; first compound 0.1265 µM
  relative viability: 0.419
COR-L 105; first compound 0.4 µM
  relative viability: 0.459
COR-L 105; first compound 1.265 µM
  relative viability: 0.403
COR-L 105; first compound 4 µM
  relative viability: 0.394
SW 900; first compound 0.04 µM
  relative viability: 0.54
SW 900; first compound 0.1265 µM
  relative viability: 0.584
SW 900; first compound 0.4 µM
  relative viability: 0.473
SW 900; first compound 1.265 µM
  relative viability: 0.509
SW 900; first compound 4 µM
  relative viability: 0.567
NCI-H1734; first compound 0.04 µM
  relative viability: 0.367
NCI-H1734; first compound 0.1265 µM
  relative viability: 0.301
NCI-H1734; first compound 0.4 µM
  relative viability: 0.326
NCI-H1734; first compound 1.265 µM
  relative viability: 0.33
NCI-H1734; first compound 4 µM
  relative viability: 0.312
PC-3 [JPC-3]; first compound 0.04 µM
  relative viability: 0.485
PC-3 [JPC-3]; first compound 0.1265 µM
  relative viability: 0.586
PC-3 [JPC-3]; first compound 0.4 µM
  relative viability: 0.512
PC-3 [JPC-3]; first compound 1.265 µM
  relative viability: 0.426
PC-3 [JPC-3]; first compound 4 µM
  relative viability: 0.422
SK-MES-1; first compound 0.04 µM
  relative viability: 0.319
SK-MES-1; first compound 0.1265 µM
  relative viability: 0.273
SK-MES-1; first compound 0.4 µM
  relative viability: 0.27
SK-MES-1; first compound 1.265 µM
  relative viability: 0.304
SK-MES-1; first compound 4 µM
  relative viability: 0.247
A-427; first compound 0.04 µM
  relative viability: 0.536
A-427; first compound 0.1265 µM
  relative viability: 0.541
A-427; first compound 0.4 µM
  relative viability: 0.541
A-427; first compound 1.265 µM
  relative viability: 0.517
A-427; first compound 4 µM
  relative viability: 0.463
EKVX; first compound 0.04 µM
  relative viability: 0.507
EKVX; first compound 0.1265 µM
  relative viability: 0.425
EKVX; first compound 0.4 µM
  relative viability: 0.389
EKVX; first compound 4 µM
  relative viability: 0.293
HCC-366; first compound 0.04 µM
  relative viability: 0.397
HCC-366; first compound 0.1265 µM
  relative viability: 0.41
HCC-366; first compound 0.4 µM
  relative viability: 0.356
HCC-366; first compound 1.265 µM
  relative viability: 0.41
HCC-366; first compound 4 µM
  relative viability: 0.465
ChaGo-K-1; first compound 0.04 µM
  relative viability: 0.931
ChaGo-K-1; first compound 0.1265 µM
  relative viability: 0.813
ChaGo-K-1; first compound 0.4 µM
  relative viability: 0.881
ChaGo-K-1; first compound 1.265 µM
  relative viability: 0.959
ChaGo-K-1; first compound 4 µM
  relative viability: 0.881
NCI-H520; first compound 0.04 µM
  relative viability: 0.206
NCI-H520; first compound 0.1265 µM
  relative viability: 0.216
NCI-H520; first compound 0.4 µM
  relative viability: 0.186
NCI-H520; first compound 1.265 µM
  relative viability: 0.247
NCI-H520; first compound 4 µM
  relative viability: 0.232
NCI-H1755; first compound 0.04 µM
  relative viability: 0.42
NCI-H1755; first compound 0.1265 µM
  relative viability: 0.494
NCI-H1755; first compound 0.4 µM
  relative viability: 0.485
NCI-H1755; first compound 1.265 µM
  relative viability: 0.419
NCI-H1755; first compound 4 µM
  relative viability: 0.455
NCI-H441; first compound 0.04 µM
  relative viability: 0.209
NCI-H441; first compound 0.1265 µM
  relative viability: 0.202
NCI-H441; first compound 0.4 µM
  relative viability: 0.146
NCI-H441; first compound 1.265 µM
  relative viability: 0.152
NCI-H441; first compound 4 µM
  relative viability: 0.172
EMC-BAC-2; first compound 0.04 µM
  relative viability: 0.516
EMC-BAC-2; first compound 0.1265 µM
  relative viability: 0.543
EMC-BAC-2; first compound 0.4 µM
  relative viability: 0.48
EMC-BAC-2; first compound 1.265 µM
  relative viability: 0.405
EMC-BAC-2; first compound 4 µM
  relative viability: 0.438
H3255; first compound 0.04 µM
  relative viability: 0.291
H3255; first compound 0.1265 µM
  relative viability: 0.312
H3255; first compound 0.4 µM
  relative viability: 0.309
H3255; first compound 4 µM
  relative viability: 0.277
LOU-NH91; first compound 0.04 µM
  relative viability: 0.533
LOU-NH91; first compound 0.1265 µM
  relative viability: 0.491
LOU-NH91; first compound 0.4 µM
  relative viability: 0.585
LOU-NH91; first compound 1.265 µM
  relative viability: 0.509
LOU-NH91; first compound 4 µM
  relative viability: 0.55
